Experimental data from patent publication US4826968A, “S-alkylated coenzyme A with effect on polyamine acetylase” (Research Corporation, priority 1985, dated 1989).
Values belong to the molecule of their own block, whether it stands above or below them.

Key:
[1] = molecular target: T1, spermidine/spermine N^1 -acetyltransferase (Rattus norvegicus, UniProt Q6P9U6); assay: Cytosolic spermidine acetyltransferase assay ([14C]acetyl Coenzyme A, cellulose phosphate paper); type: biochemical; settings: for relative effectiveness in inhibiting the acetylation of spermidine and spermine: inhibitors compared with one another; for potency relative to the sym-norspermidine derivative / inhibitory activity towards spermidine/spermine N^1 -acetyltransferase: FIG. 2
T1 construct: Cytosolic spermidine acetyltransferase activity was extracted from the livers of male Sprague-Dawley rats; from tissue; host or cells: liver of male Sprague-Dawley rats, 6 h after intraperitoneal carbon tetrachloride; cytosolic extract
T1 sequence (Q6P9U6 1-171): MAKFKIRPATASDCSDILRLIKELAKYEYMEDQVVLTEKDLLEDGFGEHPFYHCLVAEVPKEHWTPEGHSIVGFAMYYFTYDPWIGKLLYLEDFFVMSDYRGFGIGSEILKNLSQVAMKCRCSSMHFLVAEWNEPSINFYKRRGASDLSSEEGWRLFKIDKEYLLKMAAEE
Method: Spermidine acetyltransferase activity was assayed in a volume of 100 μl containing 100 μg of extract protein, 300 nmol spermidine, 0.8 nmol (40 nCi) [1^14 C] acetyl Coenzyme A and 10 μmol tris-HCl (pH 7.8). The reaction was allowed to proceed at 30° C. for 10 min and was terminated by the addition of 20 μl of 1M NH2 OH.HCl. Protein was precipitated by boiling the samples for 3 min and was removed by centrifugation. 50 μl of the supernatant was applied to a 2.2 cm diameter disc of cellulose phosphate paper and was allowed to dry. The discs were washed in a beaker five times with water and three times with ethanol.
Non-enzymatic blank values for both histone and spermidine acetylation assays were routinely obtained by incubations of all the reactants excluding enzyme in the appropriate buffer.

histone acetylation = settings: mammalian cells; cited from earlier work
tumor growth = assay: Experimental tumor models, tumor growth; type: in vivo; settings: several experimental tumor models
rat hematoma cells = assay: DNA replication and proliferation of rat hematoma cells in culture; type: cell-based
[2] = molecular target: T1, spermidine/spermine N^1 -acetyltransferase; assay: Cytosolic spermidine acetyltransferase assay ([14C]acetyl Coenzyme A, cellulose phosphate paper); type: biochemical; settings: highly purified spermidine/spermine N^1 -acetyltransferase; FIG. 1
[3] = test system: Trypanosoma brucei brucei; assay: Replication of and infection by Trypanosoma brucei brucei; settings: in vivo
[4] = test system: exoerythrocyctic infection (malaria); assay: Animal studies of malaria; type: in vivo
murine tumors = assay: Murine tumors, alone and in combination with three cytotoxic agents; type: in vivo
ventral prostate gland = assay: Prostate gland secretion, growth and regrowth in rats; type: in vivo
[5] = test system: human prostate gland adenoma cells; assay: DNA replication and proliferation of human prostate gland adenoma cells in culture; type: cell-based
embryogenesis = assay: Fertility, implantation and embryonic development in treated mice; type: in vivo
Pneumocystis carinii = assay: Treatment of Pneumocystis carinii pneumonia; type: in vivo; settings: opportunistic infection in the setting of AIDS
[6] = female mice treated prior to copulation and up to 18 days after fecundation

Compound: NCCCN [1,3-diaminopropane]
relative effectiveness in inhibiting the acetylation of spermidine and spermine [1]: marginal superiority to putrescine

Compound: CC(C)(COP(=O)(O)OP(=O)(O)OC[C@H]1O[C@@H](n2cnc3c(N)ncnc32)[C@H](O)[C@@H]1OP(=O)(O)O)[C@@H](O)C(=O)NCCC(=O)NCCSCC(=O)NCCCNCCCCN [N-[2-(S-Coenzyme A)acetyl] spermidine amide]
histone acetylation (histone acetylation): inhibit histone acetylation

Compound: NCCCCN [putrescine]
relative effectiveness in inhibiting the acetylation of spermidine and spermine [1]: least effective

Compound: CC(C)(COP(=O)(O)OP(=O)(O)OC[C@H]1O[C@@H](n2cnc3c(N)ncnc32)[C@H](O)[C@@H]1OP(=O)(O)O)[C@@H](O)C(=O)NCCC(=O)NCCSCC(=O)NCCCCNCCCN [II, N-[2-(S-Coenzyme A)acetyl] spermidine amide]
inhibitory activity towards spermidine/spermine N^1 -acetyltransferase [1]: strong inhibitors | potency relative to the sym-norspermidine derivative [1]: more than an order of magnitude less potent

Compound: NCCCCNCCCCN [sym-homospermidine]
relative effectiveness in inhibiting the acetylation of spermidine and spermine [1]: an order more effectiveness than the other two compounds

Compound: CC(C)(COP(=O)(O)OP(=O)(O)OC[C@H]1O[C@@H](n2cnc3c(N)ncnc32)[C@H](O)[C@@H]1OP(=O)(O)O)[C@@H](O)C(=O)NCCC(=O)NCCSCC(=O)NCCCNCCCCN [I, N-[2-(S-Coenzyme A)acetyl] spermidine amide]
inhibitory activity towards spermidine/spermine N^1 -acetyltransferase [1]: strong inhibitors | potency relative to the sym-norspermidine derivative [1]: more than an order of magnitude less potent

Now from value to molecule, other results behind:

potency relative to the sym-norspermidine derivative [1]: much less active
Compound: CC(C)(COP(=O)(O)OP(=O)(O)OC[C@H]1O[C@@H](n2cnc3c(N)ncnc32)[C@H](O)[C@@H]1OP(=O)(O)O)[C@@H](O)C(=O)NCCC(=O)NCCSCC(=O)NCCCCN [amide derived from putrescine]

potency relative to the sym-norspermidine derivative [1]: much less active
Compound: CC(C)(COP(=O)(O)OP(=O)(O)OC[C@H]1O[C@@H](n2cnc3c(N)ncnc32)[C@H](O)[C@@H]1OP(=O)(O)O)[C@@H](O)C(=O)NCCC(=O)NCCSCC(=O)NCCCN [amide derived from 1,3-diaminopropane]
inhibition relative to coenzyme A ([1]; FIG. 2C): marginally more inhibitory than coenzyme A

inhibition of the acetylation of spermidine ([1]; crude cytosolic extracts from livers of carbon tetrachloride treated rats, FIG. 1): very potent inhibitor | inhibition of the acetylation of spermidine [2]: very potent inhibitor
Compound: CC(C)(COP(=O)(O)OP(=O)(O)OC[C@H]1O[C@@H](n2cnc3c(N)ncnc32)[C@H](O)[C@@H]1OP(=O)(O)O)[C@@H](O)C(=O)NCCC(=O)NCCSCC(=O)NCCCNCCCN [N-[2-(S-Coenzyme A)acetyl] sym-norspermidine amide]
tumor growth (tumor growth): Marked retardation or arrest of tumor growth | dependence of the inhibition on substrate concentration ([1]; no full kinetic analysis): greater when the assays were carried out at lower concentrations with either substrate | DNA replication (rat hematoma cells): inhibits DNA replication | cell proliferation (rat hematoma cells): retards proliferation | T.b. brucei infection [3]: completely eliminating the infection | replication of Trypanosoma brucei brucei [3]: inhibits the replication | efficacy against exoerythrocyctic infection [4]: effective therapeutic agent | antitumor effect alone versus each cytotoxic drug (murine tumors; alone): superior to those of each cytotoxic drug | antitumor effect of combination with cytotoxic agents (murine tumors; combination with any of three cytotoxic agents): synegistic | androgen-induced prostatic regrowth (ventral prostate gland; castrated rats): marked slowing | prostate gland secretion (ventral prostate gland; rats): effectively inhibited | growth of the ventral prostate gland (ventral prostate gland; rats, versus control group): significantly less than in the control group | DNA replication [5]: inhibits DNA replication | cell proliferation [5]: retards proliferation | implantation (embryogenesis; [6]): no effect | subsequent embryonic development (embryogenesis; [6]): totally inhibited | fertility (embryogenesis; male and female mice treated prior to mating with untreated animals): no effect on fertility | efficacy in Pneumocystis carinii pneumonia (Pneumocystis carinii): effective in treatment

potency relative to the sym-norspermidine derivative [1]: ten times less active
Compound: CC(C)(COP(=O)(O)OP(=O)(O)OC[C@H]1O[C@@H](n2cnc3c(N)ncnc32)[C@H](O)[C@@H]1OP(=O)(O)O)[C@@H](O)C(=O)NCCC(=O)NCCSCC(=O)NCCCCNCCCCN [sym-homospermidine derivative]
